Measurements: patent publication US7405205B2, “Antitumor antisense sequences directed against R1 and R2 components of ribonucleotide reductase” (Lorus Therapeutics Inc., priority 1996, dated 2008)
Strand notation (5' to 3'): a small letter for the sugar, then the base; units joined by * are phosphorothioate-linked, units joined directly phosphodiester-linked; [ ] holds rarer units or linkages, { } end groups; capitals alone tell only the bases. d = 2'-deoxy (DNA)

How the values were obtained:
Assay type in all cases: cell-based, human
[1] = system: PC-3 prostrate cell adenocarcinoma; assay: Relative colony forming efficiency after antisense treatment (Table 13); conditions: 0.2 μM antisense oligodeoxyribonucleotide phosphorothioate; PC-3 cells; averages of 2-8 determinations
[2] = system: HepG2 hepatocellular carcinoma; assay: Relative colony forming efficiency after antisense treatment (Table 13, FIG. 12); conditions: 0.2 μM antisense oligodeoxyribonucleotide phosphorothioate; HepG2 cells; averages of 2-8 determinations
[3] = system: MIA PaCa-2 pancreatic cell carcinoma; assay: Relative colony forming efficiency after antisense treatment (Table 13); conditions: 0.2 μM antisense oligodeoxyribonucleotide phosphorothioate; MIA PaCa-2 cells; averages of 2-8 determinations
[4] = system: HCT116 colon cell carcinoma; assay: as above; conditions: 0.2 μM antisense oligodeoxyribonucleotide phosphorothioate; HCT116 cells; averages of 2-8 determinations
A549 lung cell carcinoma = assay: as above; conditions: 0.2 μM antisense oligodeoxyribonucleotide phosphorothioate; A549 cells; averages of 2-8 determinations
[5] = system: T24 bladder cell carcinoma; assay: as above; conditions: 0.2 μM antisense oligodeoxyribonucleotide phosphorothioate; T24 cells; averages of 2-8 determinations

Sequence: AAGCGGCGGGGGTTTTCTCT (dA*dA*dG*dC*dG*dG*dC*dG*dG*dG*dG*dG*dT*dT*dT*dT*dC*dT*dC*dT; antisense) [AS-II-414-20]
- Reduced relative colony forming efficiency, expressed as % inhibition, PC-3 [1]: 60.94%
- Reduced relative colony forming efficiency, expressed as % inhibition, HepG2 [2]: 30.89%
- Reduced relative colony forming efficiency, expressed as % inhibition, MIA PaCa-2 [3]: 36.11%
- Reduced relative colony forming efficiency, expressed as % inhibition, HCT116 [4]: 19.1%
- Reduced relative colony forming efficiency, expressed as % inhibition, A549 (A549 lung cell carcinoma): 12.44%
- Reduced relative colony forming efficiency, expressed as % inhibition, T24 [5]: 11.67%

Sequence: ACTGCCATTGTCACTGCTAT (DNA, all phosphorothioate, methylation of C not given here) [AS-II-1581-20]
- Reduced relative colony forming efficiency, expressed as % inhibition, PC-3 [1]: 85.83%
- Reduced relative colony forming efficiency, expressed as % inhibition, HepG2 [2]: 93.07%
- Reduced relative colony forming efficiency, expressed as % inhibition, MIA PaCa-2 [3]: 24.07%
- Reduced relative colony forming efficiency, expressed as % inhibition, HCT116 [4]: 66.85%
- Reduced relative colony forming efficiency, expressed as % inhibition, A549 (A549 lung cell carcinoma): 90.55%
- Reduced relative colony forming efficiency, expressed as % inhibition, T24 [5]: 68.22%

Sequence: AGCCTCTGCCTTCTTATACA (dA*dG*dC*dC*dT*dC*dT*dG*dC*dC*dT*dT*dC*dT*dT*dA*dT*dA*dC*dA; antisense) [AS-II-472-20]
- Reduced relative colony forming efficiency, expressed as % inhibition, PC-3 [1]: 90.7%
- Reduced relative colony forming efficiency, expressed as % inhibition, MIA PaCa-2 [3]: 97.13%
- Reduced relative colony forming efficiency, expressed as % inhibition, HCT116 [4]: 67.23%
- Reduced relative colony forming efficiency, expressed as % inhibition, A549 (A549 lung cell carcinoma): 96.99%
- Reduced relative colony forming efficiency, expressed as % inhibition, T24 [5]: 69.26%

Sequence: ATCCAGCGCAAGGCCCAGTC (antisense; DNA, all phosphorothioate, methylation of C not given here) [AS-II-816-20]
- Reduced relative colony forming efficiency, expressed as % inhibition, PC-3 [1]: 94.08%
- Reduced relative colony forming efficiency, expressed as % inhibition, HepG2 [2]: 93.08%
- Reduced relative colony forming efficiency, expressed as % inhibition, MIA PaCa-2 [3]: 93.21%
- Reduced relative colony forming efficiency, expressed as % inhibition, HCT116 [4]: 88.22%
- Reduced relative colony forming efficiency, expressed as % inhibition, A549 (A549 lung cell carcinoma): 78.4%
- Reduced relative colony forming efficiency, expressed as % inhibition, T24 [5]: 73.91%

Sequence: ATGGTACTCGATGGGGAAGA (dA*dT*dG*dG*dT*dA*dC*dT*dC*dG*dA*dT*dG*dG*dG*dG*dA*dA*dG*dA) [AS-II-439-20]
- Reduced relative colony forming efficiency, expressed as % inhibition, PC-3 [1]: 77.66%
- Reduced relative colony forming efficiency, expressed as % inhibition, HepG2 [2]: 73.04%
- Reduced relative colony forming efficiency, expressed as % inhibition, MIA PaCa-2 [3]: 92.69%
- Reduced relative colony forming efficiency, expressed as % inhibition, HCT116 [4]: 64.7%
- Reduced relative colony forming efficiency, expressed as % inhibition, A549 (A549 lung cell carcinoma): 76.46%
- Reduced relative colony forming efficiency, expressed as % inhibition, T24 [5]: 67.84%

Sequence: CAAATGGGTTCTCTACTCTG (DNA, all phosphorothioate, methylation of C not given here) [AS-II-1217-20]
- Reduced relative colony forming efficiency, expressed as % inhibition, PC-3 [1]: 81.03%
- Reduced relative colony forming efficiency, expressed as % inhibition, MIA PaCa-2 [3]: 34.85%
- Reduced relative colony forming efficiency, expressed as % inhibition, HCT116 [4]: 68.68%
- Reduced relative colony forming efficiency, expressed as % inhibition, A549 (A549 lung cell carcinoma): 91.49%
- Reduced relative colony forming efficiency, expressed as % inhibition, T24 [5]: 66.36%

Sequence: CCAGCACTATAAACAGACAG (DNA, all phosphorothioate, methylation of C not given here) [AS-II-1517-20]
- Reduced relative colony forming efficiency, expressed as % inhibition, PC-3 [1]: 91.75%

Sequence: CCGTGGGCTCCTGGAAGATC (dC*dC*dG*dT*dG*dG*dG*dC*dT*dC*dC*dT*dG*dG*dA*dA*dG*dA*dT*dC; antisense) [AS-II-344-20]
- Reduced relative colony forming efficiency, expressed as % inhibition, PC-3 [1]: 80.06%

Sequence: CCTCTGATACTCGCCTACTC (DNA, all phosphorothioate, methylation of C not given here) [AS-II-1288-20]
- Reduced relative colony forming efficiency, expressed as % inhibition, PC-3 [1]: 93.55%
- Reduced relative colony forming efficiency, expressed as % inhibition, HepG2 [2]: 80.41%
- Reduced relative colony forming efficiency, expressed as % inhibition, MIA PaCa-2 [3]: 80.71%
- Reduced relative colony forming efficiency, expressed as % inhibition, HCT116 [4]: 66.43%
- Reduced relative colony forming efficiency, expressed as % inhibition, A549 (A549 lung cell carcinoma): 61.04%
- Reduced relative colony forming efficiency, expressed as % inhibition, T24 [5]: 56.75%

Sequence: CGGCTCATCCTCCACGC (dC*dG*dG*dC*dT*dC*dA*dT*dC*dC*dT*dC*dC*dA*dC*dG*dC) [AS-II-391-17]
- Reduced relative colony forming efficiency, expressed as % inhibition, PC-3 [1]: 93.25%
- Reduced relative colony forming efficiency, expressed as % inhibition, HepG2 [2]: 60.64%
- Reduced relative colony forming efficiency, expressed as % inhibition, MIA PaCa-2 [3]: 26.35%

Sequence: GAAACCAAATAAATCAAGCT (DNA, all phosphorothioate, methylation of C not given here) [AS-II-1790-20]
- Reduced relative colony forming efficiency, expressed as % inhibition, PC-3 [1]: 87.86%

Sequence: GAAGCCATAGAAACAGCGGG (antisense; DNA, all phosphorothioate, methylation of C not given here) [AS-II-667-20]
- Reduced relative colony forming efficiency, expressed as % inhibition, PC-3 [1]: 91.8%
- Reduced relative colony forming efficiency, expressed as % inhibition, HepG2 [2]: 88.23%
- Reduced relative colony forming efficiency, expressed as % inhibition, MIA PaCa-2 [3]: 85.26%
- Reduced relative colony forming efficiency, expressed as % inhibition, HCT116 [4]: 76.9%
- Reduced relative colony forming efficiency, expressed as % inhibition, A549 (A549 lung cell carcinoma): 70.3%
- Reduced relative colony forming efficiency, expressed as % inhibition, T24 [5]: 70.48%

Sequence: GAAGTCAGCATCCAAGGTAA (DNA, all phosphorothioate, methylation of C not given here) [AS-II-1342-20]
- Reduced relative colony forming efficiency, expressed as % inhibition, PC-3 [1]: 89.84%
- Reduced relative colony forming efficiency, expressed as % inhibition, HepG2 [2]: 82.2%
- Reduced relative colony forming efficiency, expressed as % inhibition, MIA PaCa-2 [3]: 73.77%
- Reduced relative colony forming efficiency, expressed as % inhibition, HCT116 [4]: 73.74%
- Reduced relative colony forming efficiency, expressed as % inhibition, A549 (A549 lung cell carcinoma): 65.67%
- Reduced relative colony forming efficiency, expressed as % inhibition, T24 [5]: 59.76%

Sequence: GACGGCTGGGACAGGGTGCA (antisense dG*dA*dC*dG*dG*dC*dT*dG*dG*dG*dA*dC*dA*dG*dG*dG*dT*dG*dC*dA) [AS-II-134-20]
- Reduced relative colony forming efficiency, expressed as % inhibition, PC-3 [1]: 77.51%

Sequence: GCATCCAAGGTAAAAGAATT (DNA, all phosphorothioate, methylation of C not given here) [AS-II-1335-20]
- Reduced relative colony forming efficiency, expressed as % inhibition, PC-3 [1]: 90.04%
- Reduced relative colony forming efficiency, expressed as % inhibition, HepG2 [2]: 72.98%
- Reduced relative colony forming efficiency, expressed as % inhibition, MIA PaCa-2 [3]: 78.78%
- Reduced relative colony forming efficiency, expressed as % inhibition, HCT116 [4]: 67.87%
- Reduced relative colony forming efficiency, expressed as % inhibition, A549 (A549 lung cell carcinoma): 78.59%
- Reduced relative colony forming efficiency, expressed as % inhibition, T24 [5]: 59.95%

Sequence: GCGGCGGGGGTTTTCTCTCA (dG*dC*dG*dG*dC*dG*dG*dG*dG*dG*dT*dT*dT*dT*dC*dT*dC*dT*dC*dA; antisense) [AS-II-412-20]
- Reduced relative colony forming efficiency, expressed as % inhibition, PC-3 [1]: 73.96%
- Reduced relative colony forming efficiency, expressed as % inhibition, HepG2 [2]: 26.23%
- Reduced relative colony forming efficiency, expressed as % inhibition, MIA PaCa-2 [3]: 55.25%
- Reduced relative colony forming efficiency, expressed as % inhibition, HCT116 [4]: 27.98%
- Reduced relative colony forming efficiency, expressed as % inhibition, A549 (A549 lung cell carcinoma): 43.78%
- Reduced relative colony forming efficiency, expressed as % inhibition, T24 [5]: 22.2%

Sequence: TCAGCATCCAAGGTAAAAGA (DNA, all phosphorothioate, methylation of C not given here) [AS-II-1338-20]
- Reduced relative colony forming efficiency, expressed as % inhibition, PC-3 [1]: 93.75%
- Reduced relative colony forming efficiency, expressed as % inhibition, HepG2 [2]: 80.41%
- Reduced relative colony forming efficiency, expressed as % inhibition, MIA PaCa-2 [3]: 79.17%
- Reduced relative colony forming efficiency, expressed as % inhibition, HCT116 [4]: 74.73%
- Reduced relative colony forming efficiency, expressed as % inhibition, A549 (A549 lung cell carcinoma): 63.93%
- Reduced relative colony forming efficiency, expressed as % inhibition, T24 [5]: 63.16%

Sequence: TCCTCGCGGTCTTGCTGGCC (dT*dC*dC*dT*dC*dG*dC*dG*dG*dT*dC*dT*dT*dG*dC*dT*dG*dG*dC*dC; antisense) [AS-II-323-20]
- Reduced relative colony forming efficiency, expressed as % inhibition, PC-3 [1]: 79.76%
- Reduced relative colony forming efficiency, expressed as % inhibition, HepG2 [2]: 96.39%
- Reduced relative colony forming efficiency, expressed as % inhibition, MIA PaCa-2 [3]: 97.55%
- Reduced relative colony forming efficiency, expressed as % inhibition, HCT116 [4]: 55.8%
- Reduced relative colony forming efficiency, expressed as % inhibition, A549 (A549 lung cell carcinoma): 91.24%

Sequence: TTGTGTACCAGGTGTTTGAA (DNA, all phosphorothioate, methylation of C not given here) [AS-II-1023-20]
- Reduced relative colony forming efficiency, expressed as % inhibition, PC-3 [1]: 87.63%
- Reduced relative colony forming efficiency, expressed as % inhibition, MIA PaCa-2 [3]: 42.82%
- Reduced relative colony forming efficiency, expressed as % inhibition, A549 (A549 lung cell carcinoma): 34.52%
- Reduced relative colony forming efficiency, expressed as % inhibition, T24 [5]: 58.26%
